Measured values reported in patent publication US7074789B2, “Kinase inhibitors” (Amgen Inc., priority 1999, dated 2006).

Assays:
Type in all cases: biochemical
Flt-1 = target: T1, Flt-1 (Homo sapiens, UniProt P17948); assay: Kinase inhibition assay (33P transfer), Flt-1
T1 construct: Kinases are expressed as either kinase domains or full length constructs; made in house
Summary of the method: (§1)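 Read-out: scintillation counts of 33P moved from ATP onto synthetic peptide polymer coated on the well surface, after washing with 0.5% phosphoric acid. Enzymes were tagged (GST or polyHistidine) and came from bacterial or insect-cell expression. IC50 marks 50% loss of incorporated label.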

Tek = target: T2, Tek (Homo sapiens, UniProt Q02763); assay: Kinase inhibition assay (33P transfer), Tek; details: read-out: Tek-1
T2 construct: Kinases are expressed as either kinase domains or full length constructs; made in house
T2 sequence (Q02763 23-1124, species assumed): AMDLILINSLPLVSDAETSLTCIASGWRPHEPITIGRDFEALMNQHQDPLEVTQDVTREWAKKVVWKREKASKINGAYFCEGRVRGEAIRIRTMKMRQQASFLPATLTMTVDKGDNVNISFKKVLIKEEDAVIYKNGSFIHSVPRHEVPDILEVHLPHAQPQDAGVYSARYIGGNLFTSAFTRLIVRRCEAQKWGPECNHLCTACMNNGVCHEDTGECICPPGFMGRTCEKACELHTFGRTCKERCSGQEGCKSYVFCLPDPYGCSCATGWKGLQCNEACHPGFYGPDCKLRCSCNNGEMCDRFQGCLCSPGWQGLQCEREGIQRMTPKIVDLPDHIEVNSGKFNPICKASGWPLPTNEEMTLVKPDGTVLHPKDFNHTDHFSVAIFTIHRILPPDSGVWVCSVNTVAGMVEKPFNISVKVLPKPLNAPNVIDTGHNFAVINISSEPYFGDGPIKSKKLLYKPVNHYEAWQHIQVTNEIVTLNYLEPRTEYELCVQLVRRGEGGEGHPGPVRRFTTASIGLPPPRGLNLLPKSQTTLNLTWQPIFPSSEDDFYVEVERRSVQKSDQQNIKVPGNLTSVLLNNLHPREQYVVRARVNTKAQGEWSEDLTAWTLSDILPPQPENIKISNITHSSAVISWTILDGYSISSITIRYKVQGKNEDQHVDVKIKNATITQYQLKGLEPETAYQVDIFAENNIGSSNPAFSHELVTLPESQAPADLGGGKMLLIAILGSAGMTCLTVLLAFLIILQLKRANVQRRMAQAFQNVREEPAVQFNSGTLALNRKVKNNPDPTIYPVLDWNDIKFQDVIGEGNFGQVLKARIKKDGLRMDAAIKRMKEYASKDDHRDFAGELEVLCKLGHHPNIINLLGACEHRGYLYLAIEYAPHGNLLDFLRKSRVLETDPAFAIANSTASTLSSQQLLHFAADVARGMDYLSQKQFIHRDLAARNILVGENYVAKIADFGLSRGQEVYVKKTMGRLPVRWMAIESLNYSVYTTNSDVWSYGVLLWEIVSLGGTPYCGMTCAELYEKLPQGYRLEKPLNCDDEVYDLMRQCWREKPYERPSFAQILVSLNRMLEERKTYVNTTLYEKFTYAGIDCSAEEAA
Summary of the method: as §1

ErbB4 = target: T3, ErbB4 (Homo sapiens, UniProt Q15303); assay: Kinase inhibition assay (33P transfer), ErbB4; details: read-out: ErbB4-1
T3 construct: Kinases are expressed as either kinase domains or full length constructs; made in house

c-Met = target: T4, c-Met (Homo sapiens, UniProt P08581); assay: Kinase inhibition assay (33P transfer), c-Met; details: Table 2, kinase inhibition class; read-out: Met-1
T4 construct: Kinases are expressed as either kinase domains or full length constructs; made in house
Summary of the method: as §1

Fyn = target: T5, Fyn (Homo sapiens, UniProt P06241); assay: Kinase inhibition assay (33P transfer), Fyn; details: read-out: Fyn-1
T5 construct: Kinases are expressed as either kinase domains or full length constructs; made in house
T5 sequence (P06241 whole entry, species assumed, the tested form may be a part): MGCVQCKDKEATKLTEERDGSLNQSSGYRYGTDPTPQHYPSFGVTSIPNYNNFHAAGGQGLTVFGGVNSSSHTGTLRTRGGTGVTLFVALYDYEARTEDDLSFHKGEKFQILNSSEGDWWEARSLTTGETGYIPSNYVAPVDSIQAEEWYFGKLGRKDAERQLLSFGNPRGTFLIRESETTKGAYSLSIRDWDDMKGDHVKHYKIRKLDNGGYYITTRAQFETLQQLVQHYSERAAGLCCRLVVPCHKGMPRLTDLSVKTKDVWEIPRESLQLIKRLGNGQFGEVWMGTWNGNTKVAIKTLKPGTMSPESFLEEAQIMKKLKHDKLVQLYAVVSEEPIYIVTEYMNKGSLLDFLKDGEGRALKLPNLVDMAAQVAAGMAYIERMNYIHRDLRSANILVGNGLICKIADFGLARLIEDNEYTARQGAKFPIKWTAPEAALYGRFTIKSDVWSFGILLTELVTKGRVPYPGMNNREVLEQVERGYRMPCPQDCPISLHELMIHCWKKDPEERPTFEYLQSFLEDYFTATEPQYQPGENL
Summary of the method: as §1

Lyn = target: T6, Lyn (Homo sapiens, UniProt P07948); assay: Kinase inhibition assay (33P transfer), Lyn; details: Table 6, Lyn-1 kinase inhibition class
T6 construct: Kinases are expressed as either kinase domains or full length constructs; made in house
T6 sequence (P07948 whole entry, species assumed, the tested form may be a part): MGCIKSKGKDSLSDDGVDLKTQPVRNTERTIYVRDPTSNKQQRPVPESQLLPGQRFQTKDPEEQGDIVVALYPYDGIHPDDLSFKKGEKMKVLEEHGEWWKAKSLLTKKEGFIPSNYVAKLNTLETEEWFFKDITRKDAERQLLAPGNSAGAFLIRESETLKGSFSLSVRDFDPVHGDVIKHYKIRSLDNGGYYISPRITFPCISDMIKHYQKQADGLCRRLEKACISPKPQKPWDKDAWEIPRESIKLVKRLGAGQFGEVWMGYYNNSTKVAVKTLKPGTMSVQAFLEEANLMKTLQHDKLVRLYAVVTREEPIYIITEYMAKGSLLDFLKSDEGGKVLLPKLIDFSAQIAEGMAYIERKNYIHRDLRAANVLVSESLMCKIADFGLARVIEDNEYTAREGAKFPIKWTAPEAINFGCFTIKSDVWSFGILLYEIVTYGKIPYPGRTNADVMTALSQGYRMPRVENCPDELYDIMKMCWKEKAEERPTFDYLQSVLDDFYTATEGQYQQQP
Summary of the method: as §1

Lck = target: T7, Lck (Homo sapiens, UniProt P06239); assay: Kinase inhibition assay (33P transfer), Lck; details: Table 3; read-out: Lck-1
T7 construct: Kinases are expressed as either kinase domains or full length constructs; made in house
T7 sequence (P06239 whole entry, species assumed, the tested form may be a part): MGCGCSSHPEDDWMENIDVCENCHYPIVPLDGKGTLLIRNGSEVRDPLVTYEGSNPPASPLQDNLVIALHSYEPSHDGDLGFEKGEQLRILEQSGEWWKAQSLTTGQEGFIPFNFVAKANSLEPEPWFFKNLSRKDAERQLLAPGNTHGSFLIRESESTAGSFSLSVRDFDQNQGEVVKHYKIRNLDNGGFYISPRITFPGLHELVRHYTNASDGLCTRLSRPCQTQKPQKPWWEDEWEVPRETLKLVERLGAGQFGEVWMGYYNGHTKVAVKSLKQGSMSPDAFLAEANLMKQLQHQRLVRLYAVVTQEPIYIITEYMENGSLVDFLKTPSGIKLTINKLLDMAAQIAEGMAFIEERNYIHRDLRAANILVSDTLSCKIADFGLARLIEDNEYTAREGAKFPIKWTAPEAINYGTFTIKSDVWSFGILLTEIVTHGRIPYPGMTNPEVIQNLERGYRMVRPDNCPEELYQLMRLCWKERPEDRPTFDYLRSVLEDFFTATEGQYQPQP
Summary of the method: (§2)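 Recombinant kinase-domain or full-length fusion proteins (GST or His tag) served as enzyme. Substrate poly(Glu,Tyr) 4:1 or poly(Arg,Ser) 3:1 was bound to the plate; transferred 33P was read by liquid scintillation following acid washing.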

IGFR-1 = target: T8, IGFR-1 (Homo sapiens, UniProt P08069); assay: Kinase inhibition assay (33P transfer), IGFR-1; details: Table 2, kinase inhibition class
T8 construct: Kinases are expressed as either kinase domains or full length constructs; made in house

AKT = target: T9, AKT (Homo sapiens, UniProt Q9Y243); assay: Kinase inhibition assay (33P transfer), AKT; details: Table 2, kinase inhibition class; read-out: AKT3-1
T9 construct: Kinases are expressed as either kinase domains or full length constructs; made in house
T9 sequence (Q9Y243 whole entry, the tested form may be a part): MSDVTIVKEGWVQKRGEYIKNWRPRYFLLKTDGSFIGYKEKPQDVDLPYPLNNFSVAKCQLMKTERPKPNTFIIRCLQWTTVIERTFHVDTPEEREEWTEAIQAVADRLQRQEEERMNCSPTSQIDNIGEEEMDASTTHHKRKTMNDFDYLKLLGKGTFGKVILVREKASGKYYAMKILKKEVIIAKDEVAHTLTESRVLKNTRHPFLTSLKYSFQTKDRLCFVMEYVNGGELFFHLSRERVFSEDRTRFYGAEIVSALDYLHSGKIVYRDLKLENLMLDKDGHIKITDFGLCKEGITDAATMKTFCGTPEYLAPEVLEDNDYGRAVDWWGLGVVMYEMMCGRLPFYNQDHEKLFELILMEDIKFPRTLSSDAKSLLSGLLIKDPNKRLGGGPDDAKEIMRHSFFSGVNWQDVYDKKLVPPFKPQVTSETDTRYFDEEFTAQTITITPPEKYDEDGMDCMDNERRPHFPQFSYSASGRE
Summary of the method: as §2

EGFR = target: T10, EGFR (Homo sapiens, UniProt P00533); assay: Kinase inhibition assay (33P transfer), EGFR; details: Table 2, kinase inhibition class; read-out: EGFR-1
T10 construct: Kinases are expressed as either kinase domains or full length constructs; made in house
T10 sequence (P00533 25-1210, species assumed): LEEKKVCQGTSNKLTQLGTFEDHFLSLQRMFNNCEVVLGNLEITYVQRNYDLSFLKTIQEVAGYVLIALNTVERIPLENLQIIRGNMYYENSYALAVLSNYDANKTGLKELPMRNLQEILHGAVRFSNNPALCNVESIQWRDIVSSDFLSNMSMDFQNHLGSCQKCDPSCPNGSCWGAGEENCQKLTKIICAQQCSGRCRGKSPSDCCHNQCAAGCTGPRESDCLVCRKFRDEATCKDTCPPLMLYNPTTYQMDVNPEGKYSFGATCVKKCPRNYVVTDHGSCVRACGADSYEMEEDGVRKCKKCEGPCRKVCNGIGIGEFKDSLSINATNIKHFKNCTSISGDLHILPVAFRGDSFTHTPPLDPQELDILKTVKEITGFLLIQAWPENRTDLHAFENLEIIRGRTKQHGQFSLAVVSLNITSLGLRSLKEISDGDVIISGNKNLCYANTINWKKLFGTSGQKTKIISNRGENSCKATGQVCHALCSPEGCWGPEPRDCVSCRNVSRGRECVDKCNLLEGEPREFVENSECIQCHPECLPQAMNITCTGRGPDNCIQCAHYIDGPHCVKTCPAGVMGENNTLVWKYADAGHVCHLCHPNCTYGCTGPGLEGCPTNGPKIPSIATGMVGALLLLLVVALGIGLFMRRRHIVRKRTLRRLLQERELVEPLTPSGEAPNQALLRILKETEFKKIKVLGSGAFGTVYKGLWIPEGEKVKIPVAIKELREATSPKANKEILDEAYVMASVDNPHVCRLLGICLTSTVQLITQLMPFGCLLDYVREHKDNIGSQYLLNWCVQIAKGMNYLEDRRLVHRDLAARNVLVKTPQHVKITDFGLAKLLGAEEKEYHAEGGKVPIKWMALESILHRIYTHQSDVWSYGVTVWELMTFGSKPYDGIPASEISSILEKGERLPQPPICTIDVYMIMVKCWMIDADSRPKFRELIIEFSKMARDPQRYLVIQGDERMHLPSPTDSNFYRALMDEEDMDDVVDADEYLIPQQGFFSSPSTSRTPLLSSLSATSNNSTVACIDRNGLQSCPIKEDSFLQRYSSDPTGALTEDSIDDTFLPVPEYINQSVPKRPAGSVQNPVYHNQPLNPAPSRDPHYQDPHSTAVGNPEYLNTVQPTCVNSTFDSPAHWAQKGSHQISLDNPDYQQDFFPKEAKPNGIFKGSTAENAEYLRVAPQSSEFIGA
Summary of the method: as §1

EPHB4 = target: T11, EPHB4 (Homo sapiens, UniProt P54760); assay: Kinase inhibition assay (33P transfer), EPHB4; details: read-out: EPHB4-1
T11 construct: Kinases are expressed as either kinase domains or full length constructs; made in house
T11 sequence (P54760 16-987): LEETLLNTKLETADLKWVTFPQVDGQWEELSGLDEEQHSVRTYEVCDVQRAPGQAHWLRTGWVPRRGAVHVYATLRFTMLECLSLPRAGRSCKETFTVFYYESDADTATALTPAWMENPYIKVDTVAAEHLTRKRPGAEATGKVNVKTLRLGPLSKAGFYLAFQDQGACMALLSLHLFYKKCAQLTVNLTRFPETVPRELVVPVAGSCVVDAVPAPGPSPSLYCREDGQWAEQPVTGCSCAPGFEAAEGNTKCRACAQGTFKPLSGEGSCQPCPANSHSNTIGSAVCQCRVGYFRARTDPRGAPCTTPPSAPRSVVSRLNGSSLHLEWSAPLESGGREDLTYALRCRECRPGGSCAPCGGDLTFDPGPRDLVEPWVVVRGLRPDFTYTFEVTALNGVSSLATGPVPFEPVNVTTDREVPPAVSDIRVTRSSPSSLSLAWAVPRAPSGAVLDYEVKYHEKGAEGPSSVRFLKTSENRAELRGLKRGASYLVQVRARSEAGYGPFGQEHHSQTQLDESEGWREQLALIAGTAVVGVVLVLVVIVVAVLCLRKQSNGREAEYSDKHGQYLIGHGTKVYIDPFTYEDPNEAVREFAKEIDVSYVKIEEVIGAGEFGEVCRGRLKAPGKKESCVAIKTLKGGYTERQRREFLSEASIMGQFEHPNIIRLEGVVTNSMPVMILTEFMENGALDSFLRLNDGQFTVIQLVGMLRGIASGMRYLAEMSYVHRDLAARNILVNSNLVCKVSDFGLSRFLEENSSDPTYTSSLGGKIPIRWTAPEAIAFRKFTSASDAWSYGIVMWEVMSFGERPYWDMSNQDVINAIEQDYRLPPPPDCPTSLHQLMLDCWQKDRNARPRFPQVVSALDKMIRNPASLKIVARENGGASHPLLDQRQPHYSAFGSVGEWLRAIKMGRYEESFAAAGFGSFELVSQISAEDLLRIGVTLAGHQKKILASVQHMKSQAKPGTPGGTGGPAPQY

FGFR1 = target: T12, FGFR1 (Homo sapiens, UniProt P11362); assay: Kinase inhibition assay (33P transfer), FGFR1; details: read-out: FGFR1-1
T12 construct: Kinases are expressed as either kinase domains or full length constructs; made in house

Ret-1 = target: T13, Ret-1 (Homo sapiens, UniProt P07949); assay: Kinase inhibition assay (33P transfer), Ret; details: Table 6, Ret-1 kinase inhibition class
T13 construct: Kinases are expressed as either kinase domains or full length constructs; made in house

| Structure (SMILES) | IC50 (Flt-1) [µM] | IC50 (Tek) [µM] | IC50 (ErbB4) [µM] | IC50 (c-Met) [µM] | IC50 (Fyn) [µM] | IC50 (Lyn) [µM] | IC50 (Lck) [µM] | IC50 (IGFR-1) [µM] | IC50 (AKT) [µM] | IC50 (EGFR) [µM] | IC50 (EPHB4) [µM] | IC50 (FGFR1) [µM] | IC50 (Ret-1) [µM] |
| --- | --- | --- | --- | --- | --- | --- | --- | --- | --- | --- | --- | --- | --- |
| COc1cc(Nc2ncnc(N3CCCc4ccccc43)n2)cc(OC)c1OC [Compound 609] | < 1.02 | 8.9 to 11.4 | > 11.4 | 1.02 to 6.1 | < 1.02 | < 1.02 | < 1.02 | > 11.4 | > 11.4 | < 1.02 | > 11.4 | < 1.02 | < 1.02 |
| COc1ccc(Nc2ncnc(-n3c(N)nc4ccccc43)n2)cc1OC [Compound 285] | > 12.4 | > 12.4 | > 12.4 | > 12.4 | > 12.4 | > 12.4 | 1.1 to 6.6 | < 1.1 | > 12.4 | > 12.4 | > 12.4 | 9.63 to 12.4 | 6.6 to 9.63 |
| COc1cc(Nc2ncnc(N3c4ccc(F)cc4CCC3C)n2)cc(OC)c1OC (stereo not drawn) [Compound 298] | < 0.94 | 0.94 to 5.64 | 0.94 to 5.64 | < 0.94 | 0.94 to 5.64 | < 0.94 | 0.94 to 5.64 | 5.64 to 8.23 | > 10.6 | 0.94 to 5.64 | 0.94 to 5.64 | < 0.94 | < 0.94 |
| Cc1cccc(Nc2ncnc(Nc3ccc4[nH]ccc4c3)n2)c1 [Compound 110] | < 1.26 | > 14.2 | 1.26 to 7.59 | 11.1 to 14.2 | < 1.26 | < 1.26 | 1.26 to 7.59 | 1.26 to 7.59 | > 14.2 | < 1.26 | 11.1 to 14.2 | < 1.26 | 1.26 to 7.59 |
| COc1ccc(Nc2ncnc(Nc3cc(-c4ccco4)n[nH]3)n2)cc1OC [Compound 337] | < 1.05 | > 11.9 | 1.05 to 6.33 | < 1.05 | 1.05 to 6.33 | 1.05 to 6.33 | 1.05 to 6.33 | < 1.05 | > 11.9 | 1.05 to 6.33 | 1.05 to 6.33 | < 1.05 | < 1.05 |
| COc1ccc2c(ccn2-c2ncnc(Nc3cc(OC)c(OC)c(OC)c3)n2)c1 [Compound 196] | 0.982 to 5.89 | > 11 | > 11 | > 11 | > 11 | 5.89 to 8.59 | > 11 | 0.982 to 5.89 | > 11 | 8.59 to 11 | > 11 | 5.89 to 8.59 | > 11 |
| COc1cc(Nc2ncnc(Nc3cc(-c4ccco4)n[nH]3)n2)cc(OC)c1OC [Compound 308] | < 0.977 | 5.86 to 8.55 | 0.977 to 5.86 | < 0.977 | < 0.977 | < 0.977 | 0.977 to 5.86 | < 0.977 | 8.55 to 11 | < 0.977 | < 0.977 | < 0.977 | < 0.977 |
| COCCOc1ccc(Nc2ncnc(Nc3ccc4[nH]ccc4c3)n2)cc1OCCOC [Compound 321] | > 9.99 | > 9.99 | > 9.99 | > 9.99 | > 9.99 | < 0.888 | 7.77 to 9.99 | 5.33 to 7.77 | > 9.99 | < 0.888 | > 9.99 | > 9.99 | 0.888 to 5.33 |
| COc1cc(Nc2ncnc(Nc3cccc(Cl)c3)n2)cc(OC)c1OC [Compound 135] | > 11.6 | 6.19 to 9.02 | 6.19 to 9.02 | 1.03 to 6.19 | < 1.03 | < 1.03 | 1.03 to 6.19 | < 1.03 | > 11.6 | < 1.03 | < 1.03 | 1.03 to 6.19 | 1.03 to 6.19 |
